Assays:
Assay type in all cases: cell-based
[1] = test system: Loblolly pine (Pinus taeda) embryogenic cell lines; assay: Biolistic transformation and selection of transformed sublines with or without ABA in the selection medium (Example 1)
Text: To prepare for gene transfer, a sterile fabric support (in this example PECAP® fabric support, commercially available from SEFAR Inc.) was placed in a sterile Buchner funnel and one to five milliliters of embryogenic suspension was pipetted onto the fabric support such that the embryogenic tissue was evenly distributed over the surface. The liquid medium was suctioned from the tissues using a mild vacuum. The fabric support with embryogenic tissue was removed from the Buchner funnel and placed on a GELRITE® gelling agent solidified DCR3 preparation medium (Table 2) in 100×25 mm plastic petri dishes. Dishes were incubated in a dark growth chamber at 23°±2° C. for about 24-48 hours.
DNA was transferred into the tissues by the biolistic method described in U.S. patent application Ser. No. 09/318,136 filed on 25 May 1999 and New Zealand Patent No. 336149, each incorporated herein by reference, using the PDS-1000/He BIOLISTICS® Particle Delivery System (available from Bio-Rad Laboratories). The DNAs of interest, here containing the visual marker gene uidA and the selection gene nptII, were precipitated onto the surface of gold microparticles, which were subsequently accelerated toward embryogenic tissue to penetrate the cell walls. Once inside the cells, DNA is released from the carrier particles and integrated randomly into the chromosomes.
The petri dishes with the fabric support and embryonic tissues were then placed into the interior of the PDS 1000/He BIOLISTICS® device and vacuum applied to a level of 28 inches Hg. The gold particles carrying the DNA were accelerated toward the embryogenic tissue following a helium build-up and bursting regulated by a 1550 psi rupture disk. In the PDS-1000/He BIOLISTICS® device the gap between the rupture disk and the macrocarrier (gap distance) was five mm and the macrocarrier travel distance was 13 mm. Following DNA transfer the petri dishes containing the fabric support and tissues were incubated in a dark growth chamber at 23°±2° C. for about 24 hours. The tissues and fabric support were transferred to semi-solid maintenance medium, DCR1 (Table 2) to recover from carrier particle bombardment and incubated in a dark growth chamber at 23°±2° C. for a period of about seven days. The tissues and fabric support were transferred to a selection medium, semi-solid maintenance medium DCR1 containing a level of selection agent inhibitory to the growth of non-transformed cells. In this and subsequent examples the selection agent used was GENETICIN® antibiotic at 15-30 mg/l. The plates were incubated in a dark growth chamber at 23°±2° C. for about six to twelve weeks with the fabric supports containing the tissues being transferred to the same fresh culture medium every 2-3 weeks. […]

[2] = test system: cell lines that are progeny of the elite P. taeda line 7-56; assay: Biolistic transformation, ABA in recovery and selection media (Example 2)
Description: Loblolly pine cell lines were used which had been grown and maintained as described in Example 1 above, and prepared for biolistic transformation as described in Example 1 above. In this example, only cell lines that are progeny of the elite P. taeda line 7-56 were used. Following bombardment the support membranes bearing the bombarded embryogenic cells were transferred to DCR2 maintenance media, either with or without the addition of 10 mg/l ABA for one week. Following this the support membranes bearing the bombarded embryogenic cells were placed on plates containing gelled DCR selection medium with 10 mg/l abscisic acid (ABA), and cultured for three days, so that all cells were exposed to 10 mg/l ABA in the selection medium for the first three days of selection. Following this the support membranes bearing the bombarded embryogenic cells were evenly divided among gelled media containing 5, 10, or 20 mg/l ABA for a period of two weeks. Following this, the support membranes bearing the bombarded embryogenic cells were evenly divided among gelled media containing 0, 5, 10, or 20 mg/l ABA for the remaining selection period, and transferred every three weeks to fresh selection media of the same composition.
The cells were also checked for the presence of sequences by PCR amplification using primers specific for both the uidA and nptII transgenes, techniques well known to those skilled in the art of plant transformation.

[3] = test system: embryogenic lines of crosses with P. taeda selection 7-56; assay: Recovery of transformants from elite crosses with ABA in selection media (Agrobacterium and bombardment experiments)

CC1=CC(=O)CC(C)(C)[C@@]1(O)/C=C/C(C)=C\C(=O)O [ABA, abscisic acid]
stable transformants after nine weeks of selection ([1]; 10 mg/L ABA in medium only during the first three weeks of selection): Stable transformants were detected
stable transformants after nine weeks of selection ([1]; ABA in selection medium throughout the entire nine-week selection period): more transformants were detected
transformants from a cell line of an elite family, progeny of P. taeda elite line 7-56 ([1]; ABA in the selection medium vs none): observed only on treatments that had contained ABA in the selection medium
number of transformants obtained ([1]; ABA present during the entire period of transfer, all lines tested): equal to or greater than the number obtained for any other treatment
number of transformants detected ([2]; 10 mg/L ABA in the recovery media): did not significantly increase the number of transformants detected
transformants recovered after ten weeks of selection ([2]; 5, 10, or 20 mg/l ABA present for the latter 9 weeks of selection): Transformants were recovered
transformants recovered after ten weeks of selection ([2]; ABA concentration increased to 20 mg/l after the first transfer on selection media): the largest number of transformants were recovered
lines attempted from which transformants recovered ([3]; cross 7-56×9-6, ABA in the selection media): more than 80%
lines attempted from which transformants recovered ([3]; crosses with elite P. taeda selection 7-56 as a parent, ABA in selection media, media containing 5-30 mg/L ABA): more than 80%

Reference: US6964870B2, “Enhanced selection of genetically modified pine embryogenic tissue” (MeadWestvaco Corporation, priority 2000, dated 2005)
